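How tested: cells in 96-well plates exposed to compound for 48 hours at five concentrations. GI50 = concentration required for 50% inhibition of growth. The concentration for full growth arrest is given as TGI.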
Experiments:
Assay in all cases: growth of human tumour cells (NCI), 48 h; in the data active means GI50 below about 0.43 µM; inactive means the rest
M14 melanoma = tested on: M14 melanoma
NCI-H23 lung = tested on: NCI-H23 lung
SNB-19 CNS = tested on: SNB-19 CNS
TK-10 renal = tested on: TK-10 renal
HOP-62 NSCLC = tested on: HOP-62 NSCLC
PC-3 prostate = tested on: PC-3 prostate
786-0 renal = tested on: 786-0 renal
A549 NSCLC = tested on: A549 NSCLC
HL-60(TB) leukemia = tested on: HL-60(TB) leukemia
SF-539 CNS = tested on: SF-539 CNS
OVCAR-5 ovarian = tested on: OVCAR-5 ovarian
SW-620 colon = tested on: SW-620 colon
SR leukemia = tested on: SR leukemia
RXF 393 renal = tested on: RXF 393 renal
EKVX NSCLC = tested on: EKVX NSCLC
SK-MEL-28 melanoma = tested on: SK-MEL-28 melanoma
SNB-75 CNS = tested on: SNB-75 CNS
RPMI-8226 leukemia = tested on: RPMI-8226 leukemia
OVCAR-8 ovarian = tested on: OVCAR-8 ovarian
MALME-3M melanoma = tested on: MALME-3M melanoma
HCC-2998 colon = tested on: HCC-2998 colon
COLO 205 colon = tested on: COLO 205 colon
U251 CNS = tested on: U251 CNS
OVCAR-4 ovarian = tested on: OVCAR-4 ovarian
MDA-MB-435 = tested on: MDA-MB-435
K-562 leukemia = tested on: K-562 leukemia
NCI-H522 lung = tested on: NCI-H522 lung
HOP-92 NSCLC = tested on: HOP-92 NSCLC
KM12 colon = tested on: KM12 colon
NCI-H460 lung = tested on: NCI-H460 lung
HS 578T breast = tested on: HS 578T breast
UACC-62 melanoma = tested on: UACC-62 melanoma
HCT-15 colon = tested on: HCT-15 colon
SF-295 CNS = tested on: SF-295 CNS
T-47D breast = tested on: T-47D breast
A498 renal = tested on: A498 renal
UO-31 renal = tested on: UO-31 renal
BT-549 breast = tested on: BT-549 breast
SK-MEL-2 melanoma = tested on: SK-MEL-2 melanoma
SN12C renal = tested on: SN12C renal
UACC-257 melanoma = tested on: UACC-257 melanoma
CAKI-1 renal = tested on: CAKI-1 renal
ACHN renal = tested on: ACHN renal
IGROV1 ovarian = tested on: IGROV1 ovarian
SK-OV-3 ovarian = tested on: SK-OV-3 ovarian
OVCAR-3 ovarian = tested on: OVCAR-3 ovarian
NCI-H226 lung = tested on: NCI-H226 lung
MOLT-4 leukemia = tested on: MOLT-4 leukemia
HT29 colon = tested on: HT29 colon
MDA-MB-231 breast = tested on: MDA-MB-231 breast
LOX IMVI melanoma = tested on: LOX IMVI melanoma
SF-268 CNS = tested on: SF-268 CNS
SK-MEL-5 melanoma = tested on: SK-MEL-5 melanoma
MCF7 breast = tested on: MCF7 breast
HCT-116 colon = tested on: HCT-116 colon
NCI/ADR-RES ovarian = tested on: NCI/ADR-RES ovarian
DU-145 prostate = tested on: DU-145 prostate
CCRF-CEM leukemia = tested on: CCRF-CEM leukemia

O=C(Nc1cc(C(F)(F)F)ccc1F)Nc1n[nH]c2ccccc12
> 100 µM: TGI (M14 melanoma) | TGI (NCI-H23 lung) | TGI (SNB-19 CNS) | TGI (TK-10 renal) | TGI (HOP-62 NSCLC) | TGI (PC-3 prostate) | TGI (786-0 renal) | TGI (A549 NSCLC) | TGI (HL-60(TB) leukemia) | TGI (SF-539 CNS) | TGI (OVCAR-5 ovarian) | TGI (SW-620 colon) | TGI (SR leukemia) | TGI (RXF 393 renal) | TGI (EKVX NSCLC) | TGI (SK-MEL-28 melanoma) | TGI (SNB-75 CNS) | TGI (RPMI-8226 leukemia) | TGI (OVCAR-8 ovarian) | TGI (MALME-3M melanoma) | TGI (HCC-2998 colon) | TGI (COLO 205 colon) | TGI (U251 CNS) | TGI (OVCAR-4 ovarian) | TGI (MDA-MB-435) | TGI (K-562 leukemia) | TGI (NCI-H522 lung) | TGI (HOP-92 NSCLC) | TGI (KM12 colon) | TGI (NCI-H460 lung) | TGI (HS 578T breast) | TGI (UACC-62 melanoma) | TGI (HCT-15 colon) | TGI (SF-295 CNS) | TGI (T-47D breast) | TGI (A498 renal) | TGI (UO-31 renal) | TGI (BT-549 breast) | TGI (SK-MEL-2 melanoma) | TGI (SN12C renal) | TGI (UACC-257 melanoma) | TGI (CAKI-1 renal) | TGI (ACHN renal) | TGI (IGROV1 ovarian) | TGI (SK-OV-3 ovarian) | TGI (OVCAR-3 ovarian) | TGI (NCI-H226 lung) | TGI (MOLT-4 leukemia) | TGI (HT29 colon) | TGI (MDA-MB-231 breast) | TGI (LOX IMVI melanoma) | TGI (SF-268 CNS) | TGI (SK-MEL-5 melanoma) | TGI (MCF7 breast) | TGI (HCT-116 colon) | TGI (NCI/ADR-RES ovarian) | TGI (DU-145 prostate)
active: GI50 (T-47D breast) 0.215 µM
inactive: GI50 (M14 melanoma) > 100 µM | GI50 (NCI-H23 lung) > 100 µM | GI50 (SNB-19 CNS) > 100 µM | GI50 (TK-10 renal) > 100 µM | GI50 (HOP-62 NSCLC) > 100 µM | GI50 (PC-3 prostate) > 100 µM | GI50 (786-0 renal) > 100 µM | GI50 (A549 NSCLC) > 100 µM | GI50 (HL-60(TB) leukemia) > 100 µM | GI50 (SF-539 CNS) > 100 µM | GI50 (OVCAR-5 ovarian) > 100 µM | GI50 (SW-620 colon) > 100 µM | GI50 (SR leukemia) 55.4 µM | GI50 (RXF 393 renal) > 100 µM | GI50 (EKVX NSCLC) > 100 µM | GI50 (SK-MEL-28 melanoma) > 100 µM | GI50 (SNB-75 CNS) 40.1 µM | GI50 (RPMI-8226 leukemia) > 100 µM | GI50 (OVCAR-8 ovarian) > 100 µM | GI50 (MALME-3M melanoma) > 100 µM | GI50 (HCC-2998 colon) > 100 µM | GI50 (COLO 205 colon) > 100 µM | GI50 (U251 CNS) > 100 µM | GI50 (OVCAR-4 ovarian) > 100 µM | GI50 (MDA-MB-435) > 100 µM | GI50 (K-562 leukemia) > 100 µM | GI50 (NCI-H522 lung) > 100 µM | GI50 (HOP-92 NSCLC) > 100 µM | GI50 (KM12 colon) > 100 µM | GI50 (NCI-H460 lung) > 100 µM | GI50 (HS 578T breast) > 100 µM | GI50 (UACC-62 melanoma) > 100 µM | GI50 (HCT-15 colon) > 100 µM | GI50 (SF-295 CNS) > 100 µM | GI50 (A498 renal) > 100 µM | GI50 (UO-31 renal) > 100 µM | GI50 (BT-549 breast) > 100 µM | GI50 (SK-MEL-2 melanoma) > 100 µM | GI50 (SN12C renal) > 100 µM | GI50 (UACC-257 melanoma) > 100 µM | GI50 (CAKI-1 renal) > 100 µM | GI50 (ACHN renal) > 100 µM | GI50 (IGROV1 ovarian) 0.758 µM | GI50 (SK-OV-3 ovarian) > 100 µM | GI50 (OVCAR-3 ovarian) > 100 µM | GI50 (NCI-H226 lung) > 100 µM | GI50 (MOLT-4 leukemia) > 100 µM | GI50 (HT29 colon) > 100 µM | GI50 (MDA-MB-231 breast) > 100 µM | GI50 (LOX IMVI melanoma) > 100 µM | GI50 (SF-268 CNS) > 100 µM | GI50 (SK-MEL-5 melanoma) > 100 µM | GI50 (MCF7 breast) 18.2 µM | GI50 (HCT-116 colon) > 100 µM | GI50 (NCI/ADR-RES ovarian) > 100 µM | GI50 (DU-145 prostate) > 100 µM

COc1ccc(O)c(C(=O)c2ccc(C(=O)O[C@@H]3CCCNC[C@H]3NC(=O)c3ccncc3)cc2)c1F
> 13 µM: TGI (NCI-H522 lung)
> 14 µM: TGI (UO-31 renal)
> 5.54 µM: TGI (MOLT-4 leukemia)
24.2 µM: TGI (NCI/ADR-RES ovarian)
0.839 µM: TGI (RXF 393 renal)
> 6.03 µM: TGI (CCRF-CEM leukemia)
inactive: GI50 (M14 melanoma) 1.2 µM | GI50 (NCI-H23 lung) 1.91 µM | GI50 (SNB-19 CNS) 1.9 µM | GI50 (TK-10 renal) 3.51 µM | GI50 (HOP-62 NSCLC) 0.514 µM | GI50 (PC-3 prostate) 3.74 µM | GI50 (A549 NSCLC) 0.592 µM | GI50 (HL-60(TB) leukemia) 0.753 µM | GI50 (OVCAR-5 ovarian) > 19.3 µM | GI50 (SK-MEL-28 melanoma) 2.73 µM | GI50 (RPMI-8226 leukemia) 1.25 µM | GI50 (OVCAR-8 ovarian) 1.04 µM | GI50 (MALME-3M melanoma) 1.57 µM | GI50 (HCC-2998 colon) 2.08 µM | GI50 (COLO 205 colon) 1.16 µM | GI50 (U251 CNS) 1.17 µM | GI50 (OVCAR-4 ovarian) 7.9 µM | GI50 (MDA-MB-435) 1.9 µM | GI50 (K-562 leukemia) 0.723 µM | GI50 (NCI-H522 lung) 1.74 µM | GI50 (KM12 colon) 0.8 µM | GI50 (NCI-H460 lung) 0.869 µM | GI50 (UACC-62 melanoma) 1.51 µM | GI50 (HCT-15 colon) 0.918 µM | GI50 (SF-295 CNS) 0.77 µM | GI50 (T-47D breast) 1.36 µM | GI50 (SK-MEL-2 melanoma) 0.89 µM | GI50 (SN12C renal) 1.34 µM | GI50 (CAKI-1 renal) 0.543 µM | GI50 (ACHN renal) 1.49 µM | GI50 (IGROV1 ovarian) 0.493 µM | GI50 (SK-OV-3 ovarian) 0.946 µM | GI50 (OVCAR-3 ovarian) 0.961 µM | GI50 (NCI-H226 lung) 1.68 µM | GI50 (MOLT-4 leukemia) 0.456 µM | GI50 (HT29 colon) 0.944 µM | GI50 (MDA-MB-231 breast) > 10.3 µM | GI50 (LOX IMVI melanoma) 1.19 µM | GI50 (SF-268 CNS) 0.753 µM | GI50 (SK-MEL-5 melanoma) 0.541 µM | GI50 (HCT-116 colon) 1.04 µM | GI50 (NCI/ADR-RES ovarian) 1.87 µM | GI50 (DU-145 prostate) 1.47 µM
0.779 µM: TGI (SF-539 CNS)
> 7.51 µM: TGI (SNB-75 CNS)
> 25 µM: TGI (M14 melanoma) | TGI (NCI-H23 lung) | TGI (SNB-19 CNS) | TGI (TK-10 renal) | TGI (HOP-62 NSCLC) | TGI (PC-3 prostate) | TGI (786-0 renal) | TGI (A549 NSCLC) | TGI (OVCAR-5 ovarian) | TGI (SW-620 colon) | TGI (SK-MEL-28 melanoma) | TGI (RPMI-8226 leukemia) | TGI (OVCAR-8 ovarian) | TGI (MALME-3M melanoma) | TGI (HCC-2998 colon) | TGI (COLO 205 colon) | TGI (OVCAR-4 ovarian) | TGI (MDA-MB-435) | TGI (K-562 leukemia) | TGI (KM12 colon) | TGI (NCI-H460 lung) | TGI (HS 578T breast) | TGI (UACC-62 melanoma) | TGI (HCT-15 colon) | TGI (SF-295 CNS) | TGI (T-47D breast) | TGI (SN12C renal) | TGI (CAKI-1 renal) | TGI (ACHN renal) | TGI (IGROV1 ovarian) | TGI (SK-OV-3 ovarian) | TGI (NCI-H226 lung) | TGI (HT29 colon) | TGI (MDA-MB-231 breast) | TGI (LOX IMVI melanoma) | TGI (SF-268 CNS) | TGI (MCF7 breast) | TGI (HCT-116 colon) | TGI (DU-145 prostate)
> 5.21 µM: TGI (SR leukemia)
> 7.35 µM: TGI (OVCAR-3 ovarian)
1.6 µM: TGI (A498 renal)
active: GI50 (786-0 renal) 0.403 µM | GI50 (SF-539 CNS) 0.0852 µM | GI50 (SR leukemia) 0.146 µM | GI50 (RXF 393 renal) 0.162 µM | GI50 (SNB-75 CNS) 0.0788 µM | GI50 (CCRF-CEM leukemia) 0.313 µM | GI50 (HS 578T breast) 0.174 µM | GI50 (A498 renal) 0.189 µM | GI50 (UO-31 renal) 0.375 µM | GI50 (BT-549 breast) 0.212 µM | GI50 (MCF7 breast) 0.275 µM
3.36 µM: TGI (BT-549 breast)
2.34 µM: TGI (HL-60(TB) leukemia)
3.15 µM: TGI (SK-MEL-5 melanoma)
16.6 µM: TGI (SK-MEL-2 melanoma)
> 22.7 µM: TGI (U251 CNS)
